{
  "source": "patent EP4711361A1",
  "about": "“NITROGEN-CONTAINING HETEROCYCLIC COMPOUND AND USE THEREOF” (Jiangsu Deyuan Pharmaceutical Co.,Ltd., priority 2023, dated 2024)",
  "key": {"in vitro [1]": {"assay": "in vitro", "settings": "human, microsomes"}, "in vivo": {"assay": "in vivo", "settings": "cynomolgus monkey, po, 3 mg/kg"}, "[2]": {"assay": "Permeability test (MDR1-MDCKII monolayer, bidirectional transport)", "format": "in vitro ADME", "settings": "dog", "protocol": "Experimental objective: The permeability and efflux ratio of the compound of the present disclosure were determined using the MDR1-MDCKII monolayer cell model to assess its membrane permeability and potential for P-gp-mediated efflux transport.\nExperimental protocol: MDR1-MDCKII cells (obtained from the Netherlands Cancer Institute) were seeded in 96-well plates (obtained from Corning) at a cell density of 3.33 × 10^5 cells/mL and cultured for 4 to 7 days to form confluent cell monolayers. Hank's balanced salt solution containing 10 mM HEPES (pH 7.40) was used as the transport buffer. The test compound was evaluated for bidirectional transport at a concentration of 2 µM, with the DMSO concentration in the incubation system maintained below 1%. After adding the samples, the cell plate was incubated at 37±1°C, 5% CO2, and saturated humidity for 2.5 hours. All samples were quantitatively analyzed using the LC-MS/MS method. The apparent permeability coefficient (Papp, cm/s) and efflux ratio (ER) were calculated using the following formula. Apparent permeability coefficient (Papp, cm/s) was calculated using the following formula: Papp = (dCr/dt) x Vr / (A x C0). Herein, dCr/dt represents the cumulative concentration of the compound at the receiving end per unit time (µM/s); Vr is the volume of the solution at the receiving end (with solution volumes at the apical and basolateral ends being 0.075 mL and 0.250 mL, respectively); A is the relative surface area of the cell monolayer (0.143 cm^2); C0 is the initial concentration of the test substance at the dosing end (µM) or the peak area ratio of the reference substance. The efflux ratio was calculated using the following formula: ER = Papp (BA)/ Papp (AB). Table 7: Permeability test results of compounds"}, "human CYP11B2": {"target": "T1, human CYP11B2 (Homo sapiens, UniProt P19099)", "T1 construct": "expressed in transfected cells; host or cells: human renal leiomyoma G402 cells (monoclonal)", "T1 sequence (P19099 25-503)": "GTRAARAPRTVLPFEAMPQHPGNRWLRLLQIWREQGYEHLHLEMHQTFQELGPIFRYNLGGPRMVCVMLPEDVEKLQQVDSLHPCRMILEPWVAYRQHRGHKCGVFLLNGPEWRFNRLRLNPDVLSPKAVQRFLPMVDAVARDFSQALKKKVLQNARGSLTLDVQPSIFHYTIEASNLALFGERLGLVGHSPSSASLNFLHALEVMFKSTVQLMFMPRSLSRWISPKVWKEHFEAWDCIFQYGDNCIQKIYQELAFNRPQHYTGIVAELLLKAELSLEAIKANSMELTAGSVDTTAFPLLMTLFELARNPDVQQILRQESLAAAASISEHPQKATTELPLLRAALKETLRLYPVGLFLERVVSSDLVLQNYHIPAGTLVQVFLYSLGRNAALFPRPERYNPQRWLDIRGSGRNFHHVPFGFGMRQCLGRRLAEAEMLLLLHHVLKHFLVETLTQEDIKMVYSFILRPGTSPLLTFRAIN", "assay": "In vitro activity assay of monoclonal cells overexpressing human CYP11B2", "format": "cell-based", "settings": "G402 cells overexpressing human CYP11B2; 1 µM 11-deoxycorticosterone, 16 hours; aldosterone by LC-MS/MS", "protocol": "The human renal leiomyoma G402 cell line overexpressing human CYP11B2 was selected to serve as a compound activity screening system. Table 1: Cell and reagent information\n2) Compound details: The test compound was prepared as a 10 µM working concentration using DMSO. 3) Experimental procedure\nDay 1: Cells were digested, and human renal leiomyoma G402 cells overexpressing human CYP11B2 were resuspended to 1×10^5 cells/mL, with 100 µL seeded into a 96-well plate.\n(§1) Day 3: The cell supernatant was collected and added to 200 µL of a methanol solution containing internal standards (internal standards: 35 ng/mL ketoprofen or 7.5 ng/mL carbamazepine or 5 ng/mL diphenhydramine or 10 ng/mL tolbutamide). The mixture was vortexed and centrifuged (4000×g, 4°C, 5 minutes). Then, 100 µL of the supernatant was taken and mixed with 100 µL of pure water.\nRatio = Aldosterone peak area/Internal standard peak area [formula] Control activity% = (Ratiotestcompound/RatioDMSO) × 100% [formula]\n(§2) \"Ratio test compound\" represents the Ratio values at different concentrations of the test compound.\n(§3) \"Ratio DMSO\" represents the Ratio value without the addition of the test compound. • X = Log (compound concentration) • Y = Control activity%\nThe IC50 of the test compound was determined by fitting to a nonlinear regression equation using XLfit 5.5.0. Table 3: Results for in vitro activity assay of monoclonal cells overexpressing human CYP11B2"}, "human CYP11B1": {"target": "T2, human CYP11B1 (Homo sapiens, UniProt P15538)", "T2 construct": "expressed in transfected cells; host or cells: human renal leiomyoma G402 cells (monoclonal)", "T2 sequence (P15538 25-503)": "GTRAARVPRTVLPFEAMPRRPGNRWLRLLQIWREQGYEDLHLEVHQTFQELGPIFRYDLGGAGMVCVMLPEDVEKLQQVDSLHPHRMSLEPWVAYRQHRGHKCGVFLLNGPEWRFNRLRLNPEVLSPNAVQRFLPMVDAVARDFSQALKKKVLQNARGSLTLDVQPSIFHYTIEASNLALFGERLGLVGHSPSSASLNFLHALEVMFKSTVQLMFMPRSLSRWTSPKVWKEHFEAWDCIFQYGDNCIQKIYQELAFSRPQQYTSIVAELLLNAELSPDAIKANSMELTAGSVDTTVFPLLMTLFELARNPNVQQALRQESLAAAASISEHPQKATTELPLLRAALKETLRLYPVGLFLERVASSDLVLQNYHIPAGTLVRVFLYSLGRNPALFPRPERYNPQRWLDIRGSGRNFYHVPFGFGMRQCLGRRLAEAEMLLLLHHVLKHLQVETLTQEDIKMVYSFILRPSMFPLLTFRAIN", "assay": "In vitro activity assay of monoclonal cells overexpressing human CYP11B1", "format": "cell-based", "settings": "G402 cells overexpressing human CYP11B1; 1 µM 11-deoxycortisol, 16 hours; cortisol by LC-MS/MS", "protocol": "The human renal leiomyoma G402 cell line overexpressing human CYP11B1 was selected to serve as a compound selectivity screening system.\nDay 1: Cells were digested, and human renal leiomyoma G402 cells overexpressing CYP11B1 were resuspended to 1×10^5 cells/mL, with 100 µL seeded into a 96-well plate.\nas §1\nRatio = Cortisol peak area/Internal standard peak area [formula] Control activity% = (Ratiotestcompound/RatioDMSO) × 100% [formula]\nas §2, §3\nThe IC50 of the test compound was determined by fitting to a nonlinear regression equation using XLfit 5.5.0. Table 4: Results for in vitro activity assay of monoclonal cells overexpressing human CYP11B1"}, "in vitro [3]": {"assay": "in vitro", "settings": "rat, plasma"}, "in vitro [4]": {"assay": "in vitro", "settings": "cynomolgus monkey, plasma"}, "in vitro [5]": {"assay": "in vitro", "settings": "human, plasma"}},
  "data": [
    {"compound": "CCC(=O)NC1CCCc2c(-c3cc4ccc(=O)n(C)c4cc3F)cncc21", "note": "(single isomer, unassigned) [Compound 019]", "values": [
      {"measurement": "CLint scaled at 1 µM", "setting": "in vitro [1]", "value": "< 8.6", "unit": "mL/min/kg"},
      {"measurement": "AUC(0-t) at 24 h", "setting": "in vivo", "value": 23.9, "unit": "µM·h"},
      {"measurement": "Cmax", "setting": "in vivo", "value": 3.79, "unit": "µM"},
      {"measurement": "bioavailability", "setting": "in vivo", "value": 113, "unit": "%"},
      {"measurement": "half-life", "setting": "in vivo", "value": 279, "unit": "min"},
      {"measurement": "efflux ratio at 2.5 h, 2 µM", "setting": "[2]; MDCK-MDR1, pH 7.4, ER = Papp (BA)/ Papp (AB)", "value": 1.55},
      {"measurement": "Papp A→B at 2.5 h, 2 µM", "setting": "[2]; MDCK-MDR1, pH 7.4, pH 7.40, 2.5 hours, A to B, read-out: Apparent permeability coefficient (Papp (AB), 10^-6 cm/s)", "value": 21.5, "unit": "×10⁻⁶ cm/s"},
      {"measurement": "IC50", "setting": "human CYP11B2", "value": 17.3, "unit": "nM"},
      {"measurement": "IC50", "setting": "human CYP11B1", "value": 1680, "unit": "nM"},
      {"measurement": "fraction unbound at 4 h, 2 µM", "setting": "in vitro [3]", "value": 0.129},
      {"measurement": "fraction unbound at 4 h, 2 µM", "setting": "in vitro [4]", "value": 0.248},
      {"measurement": "fraction unbound at 4 h, 2 µM", "setting": "in vitro [5]", "value": 0.238}
    ]}
  ]
}
